Test results published in patent US10137170B2, “Lipidated incretin receptor ligand human immunoglobulin Fc-region fusion polypeptides” (INDIANA UNIVERSITY RESEARCH AND TECHNOLOGY CORPORATION, priority 2013, dated 2018).
Starred links: 1 amine or outer side, 2 acyl side, 3 side chain; linkers in the order of their positions; H or OH if unused. Positions of bridges follow the written chain, without caps; N, C: chain ends. Non-standard residues stand in square brackets, D forms with d. Groups on a side chain read outwards from the residue. Chains are numbered I, II in the order given. *: point of attachment. γGlu = O=C(O)[C@H](CCC(=O)[*:2])N[*:1]; Desaminotyrosyl = O=C(CCc1ccc(O)cc1)*; Palmitoyl = CCCCCCCCCCCCCCCC(=O)*; X1 = O=C(C[*:1])[*:2]; Aib = CC(C)(N)C(=O)O

Key:
Assay type in all cases: cell-based
human GLP-R = biological target: T1, human GLP-R (Homo sapiens, UniProt P43220); assay: Cyclic AMP (cAMP) assay, cell-suspension format, stably expressed human GLP-1-receptor in CHO cells
T1 construct: host or cells: CHO-K1 (cAMP Hunter)
Protocol: (§1) On the day of the experiment, the medium was removed and the cell monolayer was washed with 10 mL phosphate buffered saline (PBS) per flask. […] The flask was gently tapped and the cell suspension was pooled. The cell suspension was centrifuged for 3 min. at 150×g, and supernatant was discarded. The cell pellet was resuspended in assay buffer and cell number determined. Cell concentration was adjusted to 2×10^5 cells/mL. A 25 μL cell suspension aliquot was transferred into each well of a 96-well plate using Multi-drop dispenser (5000 cells/well). A 25 μL aliquot of diluted compound was transferred to the cell plate and the cell suspension incubated for 30 min. at RT on a plate shaker (450 rpm). The reaction was stopped by addition of lysis buffer and cAMP generated was determined using the cAMP dynamic 2 kit from Cisbio following the manufacturer's instructions. The time resolved fluorescence signal was determined using an EnVision (PerkinElmer). Cyclic AMP production was calculated based on standard curve run in parallel for every experiment. Data were analyzed using Excel Fit software.

GIP-R = biological target: T2, GIP-R (Homo sapiens, UniProt P48546); assay: Cyclic AMP (cAMP) assay, cell-suspension format, stably expressed human GIP-receptor in CHO cells
T2 construct: host or cells: CHO-K1 (cAMP Hunter)
T2 sequence (P48546 22-466): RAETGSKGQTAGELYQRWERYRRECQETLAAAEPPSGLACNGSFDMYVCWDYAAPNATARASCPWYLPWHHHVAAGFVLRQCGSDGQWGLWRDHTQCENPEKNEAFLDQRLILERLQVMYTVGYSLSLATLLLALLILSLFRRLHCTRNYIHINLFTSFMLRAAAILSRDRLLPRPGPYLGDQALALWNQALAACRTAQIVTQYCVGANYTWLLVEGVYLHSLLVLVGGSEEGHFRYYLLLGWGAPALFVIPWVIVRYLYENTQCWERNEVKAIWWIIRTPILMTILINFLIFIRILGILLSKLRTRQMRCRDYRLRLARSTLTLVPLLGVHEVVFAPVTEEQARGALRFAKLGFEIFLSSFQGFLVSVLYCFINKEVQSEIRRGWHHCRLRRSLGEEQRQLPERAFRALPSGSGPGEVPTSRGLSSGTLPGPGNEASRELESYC
Protocol: as §1

human GCG-R = biological target: T3, human GCG-R (Homo sapiens, UniProt P47871); assay: Cyclic AMP (cAMP) assay, cell-suspension format, stably expressed human GCG-receptor in CHO cells; settings: for EC50: Table 1, cAMP, CHO cells
T3 construct: host or cells: CHO-K1 (cAMP Hunter)
Protocol: as §1

[1] = Table 1, relative to GLP-1 maximum
[2] = Table 1, relative to GIP maximum
[3] = Table 1, relative to GCG maximum

T1 sequence (P43220 24-463): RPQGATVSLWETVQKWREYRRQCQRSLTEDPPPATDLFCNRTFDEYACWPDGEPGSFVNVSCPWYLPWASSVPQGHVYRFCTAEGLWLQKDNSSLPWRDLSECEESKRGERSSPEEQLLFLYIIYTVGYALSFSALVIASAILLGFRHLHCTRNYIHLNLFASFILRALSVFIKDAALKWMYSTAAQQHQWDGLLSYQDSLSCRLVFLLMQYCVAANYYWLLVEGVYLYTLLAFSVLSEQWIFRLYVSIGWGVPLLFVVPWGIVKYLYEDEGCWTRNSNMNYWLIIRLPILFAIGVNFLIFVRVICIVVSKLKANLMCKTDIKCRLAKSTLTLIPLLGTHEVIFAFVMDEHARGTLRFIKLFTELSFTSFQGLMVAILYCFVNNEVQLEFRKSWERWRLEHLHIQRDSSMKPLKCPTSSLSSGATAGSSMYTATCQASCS
T3 sequence (P47871 26-477): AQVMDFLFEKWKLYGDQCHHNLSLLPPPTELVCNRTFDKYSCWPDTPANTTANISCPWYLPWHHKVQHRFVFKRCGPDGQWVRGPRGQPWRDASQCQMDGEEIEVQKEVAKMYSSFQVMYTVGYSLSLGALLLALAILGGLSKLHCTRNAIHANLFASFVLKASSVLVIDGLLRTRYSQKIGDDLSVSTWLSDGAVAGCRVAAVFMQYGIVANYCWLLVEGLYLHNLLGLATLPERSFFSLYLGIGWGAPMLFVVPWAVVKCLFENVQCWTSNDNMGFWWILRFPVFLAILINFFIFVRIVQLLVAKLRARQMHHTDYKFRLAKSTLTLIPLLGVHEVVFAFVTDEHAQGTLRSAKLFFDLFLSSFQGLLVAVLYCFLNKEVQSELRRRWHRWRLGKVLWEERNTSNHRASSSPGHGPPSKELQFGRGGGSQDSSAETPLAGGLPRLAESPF

| EC50 (human GLP-R; Table 1, cAMP, CHO cells) [nM] | EC50 (GIP-R; Table 1, cAMP, CHO cells) [nM] | Substance | human GLP-R % max GLP-1 (human GLP-R; comparative table) [%] | human GIP-R % max GIP (GIP-R; comparative table) [%] | human GCG-R % max GCG (human GCG-R; comparative table) [%] | human GLP-R % max GLP-1 (human GLP-R; [1]) [%] | EC50 (human GLP-R; comparative table) [nM] | human GIP-R % max GIP (GIP-R; [2]) [%] | EC50 (GIP-R; comparative table) [nM] | human GCG-R % max GCG (human GCG-R; [3]) [%] | EC50 (human GCG-R) [nM] |
| --- | --- | --- | --- | --- | --- | --- | --- | --- | --- | --- | --- |
| – | – | I: Ac-[dY]AVGTFTSDK([γGlu-Palmitoyl])SKYLDERAAQDFVQWLLEGGPSSGAPPPSC-NH2 / II: GGGLPETGGSGS-OH (linker I:40-II:N via X1) [compound 13] | 73 | 91 | 99 | – | – | – | – | – | – |
| – | – | I: H-Y[Aib]EGTFTSDK([γGlu-γGlu-Palmitoyl])SIYLDKQAA[Aib]EFVNWLLAGGPSSGAPPPSC-NH2 / II: LPETGGSGS-OH (linker I:40-II:N via X1) [compound 10] | 96 | 97 | 98 | 96.7 | 0.02 | 86.7 | 0.01 | 100.2 | – |
| – | – | I: Ac-[dY]ALGTFTSDK([γGlu-Palmitoyl])SKYLDERAAQDFVQWLLEGGPSSGAPPPSC-NH2 / II: GGGLPETGGSGS-OH (linker I:40-II:N via X1) [compound 12] | 94 | 90 | 100 | – | – | – | – | – | – |
| – | – | I: H-Y[Aib]EGTFTSDK([γGlu-γGlu-Palmitoyl])SIYLDKQAA[Aib]EFVNWLLAGGPSSGAPPPSC-NH2 / II: GGGLPETGGSGS-OH (linker I:40-II:N via X1) [compound 9] | 91 | 100 | 109 | 99.9 | – | 90.7 | 0.01 | 109.0 | 8.86 |
| – | – | I: Desaminotyrosyl-AEGTFTSDK([γGlu-Palmitoyl])SKYLDERAAQDFVQWLLEGGPSSGAPPPSC-NH2 / II: GGGLPETGGSGS-OH (linker I:39-II:N via X1) [compound 11] | 67 | 83 | 28 | – | – | – | – | – | – |
| 0.129 | > 600 | Dulaglutide [reference compound] | – | – | – | 98.2 | – | 13.8 | – | 1.6 | > 600 |
